We go through four compounds from US7314858B2, “Retrocyclins: antiviral and antimicrobial peptides” (priority 2001, dated 2008).

For data set [1], the system named is HIV-1 strain IIIB. The experiment in a line: HIV-1 IIIB infection of H9 cells, p24 antigen ELISA. It counts as cell-based. As to conditions: H9 cells, IIIB (X4), peptide 10-20 μg/ml. How it is done: FIG. 1. Circular minidefensins reduce HIV-1 infection of H9 cells. HIV-I strain IIIB (MOI=10^−2) was incubated with 2.5×10^5 H9 cells in the presence or absence of 20 μg/ml RTD-1, RTD-2 or RTD-3. p24 antigen release was monitored by ELISA on days 3, 6, and 9. Assay sensitivity=10 pg/ml.
Immortalized CD4^+ H9 cells, which are permissive for infection with this strain, were maintained in RPMI supplemented with 10% heat-inactivated fetal calf serum (FCS), 10 mM HEPES, 2 mM glutamine, 100 U of penicillin/ml, and 10 μg of streptomycin/ml (R10 media). Cells (2.5×10^5/100 μl) were incubated with virus (multiplicity of infection (MOI)=10^−2) in the presence or absence of 20 μg/ml RTD-1, RTD-2 or RTD-3 for 3 hrs at 37° C./5% CO2. The cells were washed in R10 media, seeded in 48-well tissue culture plates in 1 ml R10 media, and incubated at 37° C./5% CO2 for 9 days. Aliquots of cell supernatant were removed at the specified time points and analyzed by a sensitive ELISA (DuPont NEN) that quantitates p24 antigen of HIV-1. The three circular rhesus minidefensins were similarly active, inhibiting HIV-1 by 100-1000 fold by 9 days post-inoculation (note the logarithmic scale).
(§1) Either HIV-1-permissive H9 cells were used as targets, or primary CD4^+ lymphocytes from HIV-1-seronegative donors generated from freshly purified peripheral blood mononuclear cells (PBMC) stimulated with a CD3-CD8 bispecific monoclonal antibody. After approximately 7 days, when 98% of these cells co-expressed CD3 and CD4, they were infected with HIV-1 with or without retrocyclin or other test peptide. These cells were maintained in RPMI containing 10% FCS supplemented with 2 mM glutamine, 100 U of penicillin/ml, 10 μg of streptomycin/ml, and 50 U of interleukin 2/ml (R10-50 media).
Mature retrocyclin was prepared by a three-step process.

For a further data set, the system named is E. coli ML-35p. The experiment in a line: Two-stage radial diffusion assay. Format: cell-based, Escherichia coli. The protocol: (§2) FIG. 4. Effect of salt on antibacterial activity of circular minidefensins. Human retrocyclin and monkey RTD-1 were tested against our standard lab stains: E. coli ML-35p, P. aeruginosa MR 3007, L. monocytogenes EGD, and S. aureus 930918. The bars show MIC values±SEM values that resulted from 3-6 radial diffusion assays per organism and assay condition.
(§3) The effects of NaCl on the antimicrobial activity of retrocyclin and RTD-1, from two-stage radial diffusion assays, are compared in FIG. 4.

For another data set, the system named is L. monocytogenes EGD. The experiment in a line: Two-stage radial diffusion assay. Format: cell-based, Listeria monocytogenes. The protocol:
as §2, §3

Another data set is described as follows: MTT cytotoxicity assay. As to conditions: human, H9 cells. Format: cell-based, human. The protocol:
FIG. 8. Cytotoxicity of antimicrobial peptides against H9 cells. Retrocyclin, RTD-1 and PG-1 (a porcine-derived peptide with anti-HIV-1 activity) were tested for cytotoxicity using an MTT assay for cell proliferation. Note that the EC50 of Retrocyclin and RTD-1 were >100 μg/ml, concentrations well above their antiviral concentration.
Retrocyclin is not cytotoxic. […] Retrocyclin was not hemolytic for human erythrocytes.

In data set [2] the test system is HIV-1 strain IIIB. The data set is described as follows: HIV-1 IIIB infection of CD4+ PBMC, p24 antigen ELISA. Format: cell-based. As to conditions: CD4+ PBMC, IIIB (X4), peptide 10-20 μg/ml. The protocol: FIG. 5A-C. Anti-HIV-1 activity of retrocyclin. Two strains of HIV-1 and two types of human target cells were used. The IIIB strain is T-cell tropic (X4) and utilizes the CXCR4 co-receptor for entry; the JR-CSF strain is M-tropic (R5) and uses CCR5 for entry. PBMC signifies CD4^+-selected peripheral blood mononuclear cells. […] (A) Two concentrations of retrocyclin (2 μg/ml, 20 μg/ml), 20 μg/ml of the Rhesus circular defensin “RTD-1”, and 20 μg/ml of a horseshoe crab-derived peptide “T140”, reported to only prevent X4 infections, were tested in antiviral assays of against strain IIIB in H9 cells (n=2-6 per peptide; error bars indicate SEM). (B) To confirm our results with primary human cells, similar assays were performed utilizing IIIB virus and CD4^+ PBMC or (C) JR-CSF virus and CD4^+ PBMC. […] Average of duplicate experiments are reported for studies with PBMCs. Assay sensitivity=10 pg/ml.
Either HIV-1-permissive H9 cells were used as targets, or primary CD4^+ lymphocytes from HIV-1-seronegative donors generated from freshly purified peripheral blood mononuclear cells (PBMC) stimulated with a CD3-CD8 bispecific monoclonal antibody. […] These cells were maintained in RPMI containing 10% FCS supplemented with 2 mM glutamine, 100 U of penicillin/ml, 10 μg of streptomycin/ml, and 50 U of interleukin 2/ml (R10-50 media).
Examining the effect of adding retrocyclin at various times pre- and post-HIV-1 infection. […] Primary CD4^+ PBMC were incubated with HIV-IIIB (FIG. 6) or HIV-JR-CSF for 3 hours in the presence or absence of 20 μg/ml retrocyclin. The cells were subsequently washed in media, and incubated an additional 9 days. Retrocyclin (20 μg/ml) was added back to some of the cultures at time points specified in FIG. 6 and infection was monitored by p24 ELISA as previously described. […]

In another data set the test system is HIV-1 strain JR-CSF. The data set is described as follows: HIV-1 JR-CSF infection of CD4+ PBMC, p24 antigen ELISA. Format: cell-based. As to conditions: JR-CSF (R5), peptide 10-20 μg/ml. How it is done:
FIG. 5A-C. Anti-HIV-1 activity of retrocyclin. Two strains of HIV-1 and two types of human target cells were used. The IIIB strain is T-cell tropic (X4) and utilizes the CXCR4 co-receptor for entry; the JR-CSF strain is M-tropic (R5) and uses CCR5 for entry. PBMC signifies CD4^+-selected peripheral blood mononuclear cells. […] (A) Two concentrations of retrocyclin (2 μg/ml, 20 μg/ml), 20 μg/ml of the Rhesus circular defensin “RTD-1”, and 20 μg/ml of a horseshoe crab-derived peptide “T140”, reported to only prevent X4 infections, were tested in antiviral assays of against strain IIIB in H9 cells (n=2-6 per peptide; error bars indicate SEM). (B) To confirm our results with primary human cells, similar assays were performed utilizing IIIB virus and CD4^+ PBMC or (C) JR-CSF virus and CD4^+ PBMC. Peptides were not cytotoxic at indicated concentrations, measured by trypan blue exclusion. Average of duplicate experiments are reported for studies with PBMCs. Assay sensitivity=10 pg/ml.
as §1
The p24 assay results shown in FIG. 9 are on a logarithmic scale. A horizontal reference line that passes through 100 on the ordinate scale corresponds to […] of p24 antigen. Results from 3 experiments (each performed with PBMC from a different donor) are shown.

The next data set concerns HSV-2. The experiment in a line: HSV inactivation microplate assay on ME-180 cells (MTT). The following applies: 2-50 μg/ml, 2 hrs with virus, 72 hrs culture. It counts as cell-based. The protocol: FIG. 14. Inactivation of HSV-1 and HSV-2 by retrocyclin and RC-101. Retrocyclin (left panel) and RC-101 (right panel) at the indicated concentrations were incubated with herpes simplex virus, type 1 (HSV-1) or HSV-2 for 2 hrs and then added to ME-180 cell monolayers. Cells were incubated at 37° C. for 72 hrs, and cytotoxicity was measured with an MTT kit.
Some retrocyclins are slightly active against herpes simplex virus (HSV). To determine if the activity of retrocyclin against HIV-1 was specific or representative of a more global antiviral effect, it was tested its ability to prevent HSV infection in vitro. A quantitative microplate assay was used to screen retrocyclin and retrocyclin-congeners for their ability to inactivate HSV type 1 (HSV-1) and HSV-2. The assay utilized small amounts of peptide and simultaneously evaluated for peptide-induced cytotoxicity. In brief, final peptide concentrations of 2-50 μg/ml were incubated with virus stocks for 2 hrs and added directly to ME-180 human cervical carcinoma cells. Cultures were incubated at 37° C. for 72 hrs and cytotoxicity was measured using a 3-(4,5-dimethylthiazon-2-yl)-2,5-diphenyltetrazolium bromide (MTT) cell proliferation kit (Boehringer-Mannheim, Germany). Calculations to assess antiviral activity and compute “percent protection” are delineated in (90).

A further data set concerns HIV-1 BAL. The data set is described as follows: Activity of theta-defensins against HIV-1 BAL (FIG. 21). It counts as cell-based. The text has this: (§4) FIG. 21A-21B. Activity of theta-defensins against HIV-1 BAL; and HIV-1 IIIB.
(§5) The data shown in FIGS. 21A and 21B illustrate the activity of these retrocyclin-related peptides against two different strains of HIV-1, BAL and IIIB. […] BAL and IIIB are widely studied, laboratory adapted strains of HIV.

The next data set concerns HIV-1 IIIB. The experiment in a line: Activity of theta-defensins against HIV-1 IIIB (FIG. 21). Format: cell-based.
Excerpt: as §4, §5

The subject of the next data set is HIV-1. The following applies: cited from earlier work.

Entries after “also recorded” stand apart in the source; their conditions may differ. Where a SMILES comes first, the peptide text is derived from it. Bridges are numbered along the chain shown (N, C = ends). Some results are limits rather than exact numbers.

With `CC[C@H](C)[C@@H]1NC(=O)[C@@H]2CSSC[C@H](NC(=O)[C@H](CCCNC(=N)N)NC(=O)[C@@H]3CSSC[C@H](NC1=O)C(=O)N[C@@H]([C@@H](C)O)C(=O)N[C@@H](CCCNC(=N)N)C(=O)NCC(=O)N[C@@H](Cc1ccccc1)C(=O)N3)C(=O)N[C@@H](CC(C)C)C(=O)N[C@H]1CSSC[C@H](NC(=O)[C@H](C(C)C)NC(=O)CNC(=O)[C@H](CCCNC(=N)N)NC(=O)[C@H](CCCNC(=N)N)NC1=O)C(=O)N[C@@H](CCCNC(=N)N)C(=O)N2` [RTD-1, reference compound] (cyclo(GFCRCLCRRGVCRCICTR); disulfide 3-16, 5-14, 7-12), the “inhibition of HIV-1 replication (p24)” value with HIV-1 strain IIIB [1] is listed as “protective to a lesser extent than retrocyclin”. In addition, the “effect of salt on antimicrobial activity” value with E. coli ML-35p (hypersalinity (175 mM NaCl)) and in the data set with L. monocytogenes EGD (hypersalinity (175 mM NaCl)) was “only modestly inhibitory” in each case. Besides, the antimicrobial activity entry with E. coli ML-35p (physiological (100 mM) NaCl) and in the data set on L. monocytogenes EGD (physiological (100 mM) NaCl) was “strong activity” in each case. The compound also displayed an EC50 in “MTT cytotoxicity assay” above 100 µg/mL.
With “I15Y-Retrocyclin (cyclo(GICRCICGRGICRCYCGR); disulfide (positions not given here); ring closure inferred; not fully specified (bridges)) [RC-103]”, the “inhibition of HIV-1 replication (p24)” value with HIV-1 strain IIIB [2] was “either inactive or only modestly active; also recorded: relatively ineffective”; with HIV-1 strain JR-CSF, “considerable ability to protect cells; also recorded: substantial activity”. The “protection against HSV-2” value in the data set with HSV-2 is listed as “less antiviral than retrocyclin”.
In the case of “Orang-2: cyclic GVCRC ICGRG VCRCI CRR (SEQ ID NO:134) (cyclo(GVCRCICGRGVCRCICRR); disulfide (positions not given here); ring closure inferred; not fully specified (bridges))”, the “potency against HIV-1 BAL” value in the data set with HIV-1 BAL is “more potent than retrocyclins 1 and 2 and RC101”. Moreover, in the data set on HIV-1 IIIB, the “potency against HIV-1 IIIB” value was “more potent than retrocyclins 1 and 2 and RC101”.
Regarding indolicidin, the “concentration reproducibly virucidal against HIV-1” value in the data set with HIV-1 is 333 µg/mL.
